According to US20140005163A1 (NOVARTIS AG, priority 2010, published 2014):

Assays:
Assay type in all cases: biochemical
[1] = target: T1, PI3K delta (Homo sapiens, UniProt O00329); experiment: PI3K delta kinase assay (Kinase-Glo luminescence)
T1 construct: for the full-length p110-d subunit are generated and fused by overlapping PCR; p85(iSH2) fusion partner (see partner chain) (N); His tag (C); made in house; host or cells: baculovirus; Tn5 (Trichoplusia ni) or TiniPro insect cells
Method in brief: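 Inhibition is derived from luminescent detection of unconsumed ATP. The reaction runs for one hour at ambient temperature and contains the δ isoform fusion protein, phosphatidylinositol substrate and low (1 μM) ATP. Eight compound concentrations are tested in single, and a 4-parameter logistic model is used to calculate IC50.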

[2] = target: T2, PI3K gamma (Homo sapiens, UniProt P48736); experiment: PI3K gamma kinase assay (Kinase-Glo luminescence)
T2 construct: His tag (C); made in house; host or cells: baculovirus (pVL1393); Tn5 or TiniPro insect cells; construct from Roger Williams lab, MRC LMB
Method in brief: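 Luminescent ATP-depletion (Kinase-Glo) assay with 150 nM PI3Kγ, 1 μM ATP and 10 μg/mL phosphatidylinositol in 10 mM Tris-HCl pH 7.5, 3 mM MgCl2, 50 mM NaCl, 0.05% CHAPS, 1 mM DTT; 120 min at room temperature. Eight-point dilutions; IC50 by four-parameter logistic fit.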

[3] = target: T3, PI3K alpha (Homo sapiens, UniProt P42336); experiment: PI3K alpha kinase assay (Kinase-Glo luminescence)
T3 construct: p85(iSH2) fusion partner (see partner chain) (N); His tag (C); made in house; host or cells: baculovirus; Tn5 (Trichoplusia ni) or TiniPro insect cells
Method in brief: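 Luminescent ATP-depletion assay (Kinase-Glo) with 10 nM PI3Kα and 10 μg/mL phosphatidylinositol as lipid substrate at 1 μM ATP. Incubation lasts 60 min at room temperature.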

[4] = target: T4, PI3K beta (Homo sapiens, UniProt P42338); experiment: PI3K beta kinase assay (Kinase-Glo luminescence)
T4 construct: for the full-length p110-b subunit are generated and fused by overlapping PCR; p85(iSH2) fusion partner (see partner chain) (N); His tag (C); made in house; host or cells: baculovirus; Tn5 (Trichoplusia ni) or TiniPro insect cells
Method in brief: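 Full-length p110β with a Gly-linked p85 iSH2 and a C-terminal His tag (BV949, 25 nM) was incubated with 10 μg/mL phosphatidylinositol and 1 μM ATP in 10 mM Tris pH 7.5, 3 mM MgCl2, 50 mM NaCl, 0.05% CHAPS, 1 mM DTT for 60 min at room temperature. Residual ATP was read by Kinase-Glo luminescence.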

T1 sequence (O00329 with tags, fused parts or gaps limits assumed): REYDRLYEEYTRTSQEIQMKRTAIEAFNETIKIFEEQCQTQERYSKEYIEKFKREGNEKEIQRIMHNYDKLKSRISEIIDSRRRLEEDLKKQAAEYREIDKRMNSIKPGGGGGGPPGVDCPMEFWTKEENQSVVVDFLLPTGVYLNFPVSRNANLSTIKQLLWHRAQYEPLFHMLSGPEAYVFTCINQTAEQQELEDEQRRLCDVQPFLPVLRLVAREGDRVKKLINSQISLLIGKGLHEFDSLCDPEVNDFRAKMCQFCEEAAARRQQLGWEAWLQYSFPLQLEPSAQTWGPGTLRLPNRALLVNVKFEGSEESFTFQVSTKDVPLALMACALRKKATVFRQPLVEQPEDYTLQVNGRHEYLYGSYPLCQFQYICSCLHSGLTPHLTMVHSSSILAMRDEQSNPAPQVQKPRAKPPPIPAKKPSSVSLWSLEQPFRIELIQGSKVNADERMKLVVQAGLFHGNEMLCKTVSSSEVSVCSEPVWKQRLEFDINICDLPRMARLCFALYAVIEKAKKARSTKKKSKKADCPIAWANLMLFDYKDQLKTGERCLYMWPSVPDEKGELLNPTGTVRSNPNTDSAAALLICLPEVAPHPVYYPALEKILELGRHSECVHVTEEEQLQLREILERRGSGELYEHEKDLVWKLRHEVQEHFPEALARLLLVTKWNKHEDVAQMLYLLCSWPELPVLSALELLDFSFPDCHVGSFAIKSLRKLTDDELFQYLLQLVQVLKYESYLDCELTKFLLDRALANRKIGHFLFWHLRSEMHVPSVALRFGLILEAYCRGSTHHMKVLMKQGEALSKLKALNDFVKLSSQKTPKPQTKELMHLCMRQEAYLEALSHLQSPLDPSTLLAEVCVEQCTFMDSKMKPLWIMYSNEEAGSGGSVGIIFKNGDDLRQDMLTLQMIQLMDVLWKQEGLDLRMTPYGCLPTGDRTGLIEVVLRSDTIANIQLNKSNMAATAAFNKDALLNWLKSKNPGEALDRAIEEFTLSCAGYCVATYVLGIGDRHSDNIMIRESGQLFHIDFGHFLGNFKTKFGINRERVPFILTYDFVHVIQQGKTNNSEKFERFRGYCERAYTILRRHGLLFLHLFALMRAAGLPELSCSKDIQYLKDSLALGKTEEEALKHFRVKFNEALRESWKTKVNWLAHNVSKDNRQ
T4 sequence (P42338 with tags, fused parts or gaps limits assumed): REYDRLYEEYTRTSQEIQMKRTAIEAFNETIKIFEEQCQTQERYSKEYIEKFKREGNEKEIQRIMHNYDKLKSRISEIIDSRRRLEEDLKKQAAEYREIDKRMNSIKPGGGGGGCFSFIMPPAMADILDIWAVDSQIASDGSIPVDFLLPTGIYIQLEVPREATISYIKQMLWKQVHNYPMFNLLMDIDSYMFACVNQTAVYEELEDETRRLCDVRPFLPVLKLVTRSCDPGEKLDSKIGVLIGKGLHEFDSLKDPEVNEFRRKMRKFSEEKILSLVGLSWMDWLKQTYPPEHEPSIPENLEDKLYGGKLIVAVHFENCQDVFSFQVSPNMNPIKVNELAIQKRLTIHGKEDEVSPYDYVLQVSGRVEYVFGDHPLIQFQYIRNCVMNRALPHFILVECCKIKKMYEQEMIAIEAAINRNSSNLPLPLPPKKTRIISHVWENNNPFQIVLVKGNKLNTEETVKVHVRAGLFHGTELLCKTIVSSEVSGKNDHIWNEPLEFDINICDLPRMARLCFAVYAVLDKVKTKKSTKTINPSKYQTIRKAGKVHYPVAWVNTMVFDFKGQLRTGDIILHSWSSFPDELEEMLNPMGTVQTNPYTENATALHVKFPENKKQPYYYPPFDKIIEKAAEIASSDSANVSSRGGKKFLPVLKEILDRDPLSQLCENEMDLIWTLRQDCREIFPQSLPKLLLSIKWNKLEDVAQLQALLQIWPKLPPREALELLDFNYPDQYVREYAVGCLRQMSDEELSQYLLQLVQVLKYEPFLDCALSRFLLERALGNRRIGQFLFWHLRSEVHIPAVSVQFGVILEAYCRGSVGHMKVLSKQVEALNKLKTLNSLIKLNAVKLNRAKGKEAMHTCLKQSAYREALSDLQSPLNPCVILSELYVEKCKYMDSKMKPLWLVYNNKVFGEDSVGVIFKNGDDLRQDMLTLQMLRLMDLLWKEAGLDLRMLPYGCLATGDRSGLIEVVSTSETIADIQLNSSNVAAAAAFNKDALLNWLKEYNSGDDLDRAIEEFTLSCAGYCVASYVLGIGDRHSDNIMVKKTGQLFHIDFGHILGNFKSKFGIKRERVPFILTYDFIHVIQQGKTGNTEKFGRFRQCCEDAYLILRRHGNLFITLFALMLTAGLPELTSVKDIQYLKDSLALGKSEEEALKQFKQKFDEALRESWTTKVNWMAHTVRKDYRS
T2 sequence (P48736 144-1102 limits assumed): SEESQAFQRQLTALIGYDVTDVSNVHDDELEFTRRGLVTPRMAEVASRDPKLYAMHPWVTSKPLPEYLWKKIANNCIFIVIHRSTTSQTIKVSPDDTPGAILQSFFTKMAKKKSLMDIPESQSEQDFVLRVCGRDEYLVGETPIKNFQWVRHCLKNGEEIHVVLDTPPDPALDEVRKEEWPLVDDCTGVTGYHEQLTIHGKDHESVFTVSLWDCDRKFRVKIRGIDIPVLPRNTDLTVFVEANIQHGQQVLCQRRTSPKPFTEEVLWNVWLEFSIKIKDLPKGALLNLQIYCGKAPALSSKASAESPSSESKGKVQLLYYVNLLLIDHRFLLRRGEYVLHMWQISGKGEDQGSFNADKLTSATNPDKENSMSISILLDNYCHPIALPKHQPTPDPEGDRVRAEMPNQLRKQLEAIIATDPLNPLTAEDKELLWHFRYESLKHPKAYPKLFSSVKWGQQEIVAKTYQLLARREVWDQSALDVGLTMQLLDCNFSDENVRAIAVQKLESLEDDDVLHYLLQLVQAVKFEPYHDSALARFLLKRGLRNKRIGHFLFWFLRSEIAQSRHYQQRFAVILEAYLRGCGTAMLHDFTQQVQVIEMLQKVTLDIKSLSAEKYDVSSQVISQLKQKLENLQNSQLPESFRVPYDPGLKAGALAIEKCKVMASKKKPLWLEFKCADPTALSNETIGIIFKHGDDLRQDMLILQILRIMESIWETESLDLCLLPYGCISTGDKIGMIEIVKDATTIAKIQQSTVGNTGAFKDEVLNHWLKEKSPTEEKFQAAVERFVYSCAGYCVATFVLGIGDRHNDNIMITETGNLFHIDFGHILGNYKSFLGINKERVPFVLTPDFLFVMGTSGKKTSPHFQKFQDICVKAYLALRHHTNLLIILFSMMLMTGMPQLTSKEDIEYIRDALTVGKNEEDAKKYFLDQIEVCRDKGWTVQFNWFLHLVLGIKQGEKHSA
T3 sequence (P42336 with tags, fused parts or gaps limits assumed): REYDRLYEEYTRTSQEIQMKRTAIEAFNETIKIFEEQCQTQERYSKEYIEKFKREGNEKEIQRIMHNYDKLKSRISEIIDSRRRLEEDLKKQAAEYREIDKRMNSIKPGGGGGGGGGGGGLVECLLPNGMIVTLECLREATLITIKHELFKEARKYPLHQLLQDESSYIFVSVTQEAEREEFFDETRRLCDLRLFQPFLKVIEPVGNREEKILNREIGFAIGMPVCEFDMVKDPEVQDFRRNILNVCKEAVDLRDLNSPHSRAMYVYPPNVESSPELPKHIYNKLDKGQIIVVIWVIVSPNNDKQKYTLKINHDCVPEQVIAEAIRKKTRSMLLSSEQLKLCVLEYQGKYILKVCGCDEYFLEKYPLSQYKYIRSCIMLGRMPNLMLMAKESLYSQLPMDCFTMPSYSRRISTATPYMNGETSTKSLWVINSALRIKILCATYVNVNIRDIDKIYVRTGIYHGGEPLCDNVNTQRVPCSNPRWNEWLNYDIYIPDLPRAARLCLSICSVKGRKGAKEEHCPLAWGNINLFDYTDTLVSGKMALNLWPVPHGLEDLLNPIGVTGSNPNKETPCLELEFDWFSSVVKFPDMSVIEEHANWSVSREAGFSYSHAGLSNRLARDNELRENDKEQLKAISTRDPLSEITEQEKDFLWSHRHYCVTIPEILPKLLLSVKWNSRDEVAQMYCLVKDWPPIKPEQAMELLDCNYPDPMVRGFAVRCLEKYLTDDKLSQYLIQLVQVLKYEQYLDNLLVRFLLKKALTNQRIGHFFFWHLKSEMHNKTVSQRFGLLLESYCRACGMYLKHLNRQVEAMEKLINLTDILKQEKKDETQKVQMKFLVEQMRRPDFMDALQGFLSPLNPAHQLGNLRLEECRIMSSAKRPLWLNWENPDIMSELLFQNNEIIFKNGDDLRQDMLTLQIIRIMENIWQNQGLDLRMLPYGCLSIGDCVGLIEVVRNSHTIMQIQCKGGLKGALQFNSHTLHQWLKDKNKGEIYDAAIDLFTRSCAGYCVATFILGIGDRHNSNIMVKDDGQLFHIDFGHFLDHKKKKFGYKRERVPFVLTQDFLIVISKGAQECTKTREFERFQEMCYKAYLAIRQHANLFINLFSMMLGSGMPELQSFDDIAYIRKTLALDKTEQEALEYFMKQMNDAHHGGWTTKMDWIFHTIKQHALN

SMILES | IC50 [1] | IC50 [2] | IC50 [3] | IC50 [4]
COc1ccc(-c2ccc3ncc4c(c3n2)n(-c2cn(C)nc2C)c(=O)n4C)cc1OC [Example 250, 8-(3,4-Dimethoxy-phenyl)-1-(1,3-dimethyl-1H-pyrazol-4-yl)-3-methyl-1,3-dihydro-1,3,5,9-tetraaza-cyclopenta[a]naphthalen-2-one] | 17 nM | 185 nM | 5 nM | 68 nM
Cc1nn(C)cc1-n1c(=O)n(C)c2cnc3ccc(-c4ccc5c(c4)CC(=O)N5)cc3c21 [Example 49, 1-(1,3-Dimethyl-1H-pyrazol-4-yl)-3-methyl-8-(2-oxo-2,3-dihydro-1H-indol-5-yl)-1,3-dihydro-imidazo[4,5-c]quinolin-2-one] | 106 nM | 278 nM | 47 nM | 506 nM
COc1ccc(-c2ccc3ncc4c(c3c2)n(-c2cn(C(C)C)nc2C)c(=O)n4C)cn1 [Example 2.8, 1-(1-Isopropyl-3-methyl-1H-pyrazol-4-yl)-8-(6-methoxy-pyridin-3-yl)-3-methyl-1,3-dihydro-imidazo[4,5-c]quinolin-2-one] | 15 nM | 205 nM | 29 nM | 109 nM
COc1ncc(-c2ccc3ncc4c(c3c2)n(-c2cn(C)nc2C)c(=O)n4C)cc1[N+](=O)[O-] [Example 66, 1-(1,3-dimethyl-1H-pyrazol-4-yl)-8-(6-methoxy-5-nitro-pyridin-3-yl)-3-methyl-1,3-dihydro-imidazo[4,5-c]quinolin-2-one] | 19 nM | 356 nM | 36 nM | 56 nM
Cc1nn(C)cc1-n1c(=O)n(C)c2cnc3ccc(-c4cccc(S(C)(=O)=O)c4)cc3c21 [Example 40, 1-(1,3-Dimethyl-1H-pyrazol-4-yl)-8-(3-methanesulfonyl-phenyl)-3-methyl-1,3-dihydro-imidazo[4,5-c]quinolin-2-one] | 23 nM | 83 nM | 20 nM | 34 nM
Cc1nn(C)cc1-n1c(=O)n(C)c2cnc3ccc(-c4ccc(OCCO)nc4)cc3c21 [Example 107, 1-(1,3-Dimethyl-1H-pyrazol-4-yl)-8-[6-(2-hydroxy-ethoxy)-pyridin-3-yl]-3-methyl-1,3-dihydro-imidazo[4,5-c]quinolin-2-one] | 28 nM | 147 nM | 17 nM | 95 nM
CNC(=O)c1ccc(-c2ccc3ncc4c(c3c2)n(-c2cn(C(C)C)nc2C)c(=O)n4C)cn1 [Example 15.3, 5-[1-(1-Isopropyl-3-methyl-1H-pyrazol-4-yl)-3-methyl-2-oxo-2,3-dihydro-1H-imidazo[4,5-c]quinolin-8-yl]-pyridine-2-carboxylic acid methylamide] | 329 nM | 325 nM | 123 nM | 526 nM
CCOc1ccc(-c2ccc3ncc4[nH]c(=O)n(-c5cn(C)nc5C)c4c3c2)cn1 [Example 110, 1-(1,3-Dimethyl-1H-pyrazol-4-yl)-8-(6-ethoxy-pyridin-3-yl)-1,3-dihydro-imidazo[4,5-c]quinolin-2-one] | 42 nM | 337 nM | 5 nM | 137 nM
COCCOc1ccc(-c2ccc3ncc4c(c3c2)n(-c2cn(C)nc2C)c(=O)n4C)cn1 [Example 18, 1-(1,3-Dimethyl-1H-pyrazol-4-yl)-8-[6-(2-methoxy-ethoxy)-pyridin-3-yl]-3-methyl-1,3-dihydro-imidazo[4,5-c]quinolin-2-one] | 115 nM | 397 nM | 86 nM | 252 nM
Cc1nn(C)cc1-n1c(=O)n(C)c2cnc3ccc(-c4cccc(C(N)=O)c4)cc3c21 [Example 46, 3-[1-(1,3-Dimethyl-1H-pyrazol-4-yl)-3-methyl-2-oxo-2,3-dihydro-1H-imidazo[4,5-c]quinolin-8-yl]-benzamide] | 292 nM | 388 nM | 50 nM | 563 nM
Cc1nn(C)cc1-n1c(=O)n(C)c2cnc3ccc(-c4ccc(C(N)=O)cc4)cc3c21 [Example 41, 4-[1-(1,3-Dimethyl-1H-pyrazol-4-yl)-3-methyl-2-oxo-2,3-dihydro-1H-imidazo[4,5-c]quinolin-8-yl]-benzamide] | 82 nM | 165 nM | < 9 nM | 112 nM
Cc1nn(C)cc1-n1c(=O)n(C)c2cnc3ccc(-c4cnc5c(c4)nnn5C)cc3c21 [Example 72, 1-(1,3-Dimethyl-1H-pyrazol-4-yl)-3-methyl-8-(3-methyl-3H-[1,2,3]triazolo[4,5-b]pyridin-6-yl)-1,3-dihydro-imidazo[4,5-c]quinolin-2-one] | 29 nM | 341 nM | 29 nM | 112 nM

The next lines start with the values.

IC50 [1] | IC50 [2] | IC50 [3] | IC50 [4] | SMILES
449 nM | 144 nM | 34 nM | 970 nM | Cc1nn(C)cc1-n1c(=O)n(C)c2cnc3ccc(-c4ccccc4)cc3c21 [Example 37.1, 1-(1,3-Dimethyl-1H-pyrazol-4-yl)-3-methyl-8-phenyl-1,3-dihydro-imidazo[4,5-c]quinolin-2-one]
42 nM | 150 nM | 30 nM | 239 nM | CCn1cc(-n2c(=O)n(C)c3cnc4ccc(-c5ccc(OCCOC)c(OC)c5)cc4c32)c(C)n1 [Example 30.2, 1-(1-Ethyl-3-methyl-1H-pyrazol-4-yl)-8-[3-methoxy-4-(2-methoxy-ethoxy)-phenyl]-3-methyl-1,3-dihydro-imidazo[4,5-c]quinolin-2-one]
40 nM | 169 nM | 11 nM | 144 nM | CCOc1ccc(-c2ccc3ncc4c(c3c2)n(-c2cn(C)nc2C)c(=O)n4C)cc1OC [Example 29.3, 1-(1,3-Dimethyl-1H-pyrazol-4-yl)-8-(4-ethoxy-3-methoxy-phenyl)-3-methyl-1,3-dihydro-imidazo[4,5-c]quinolin-2-one]
47 nM | 140 nM | 7 nM | 43 nM | Cc1nn(C)cc1-n1c(=O)n(C)c2cnc3ccc(-c4cccc(O)c4)cc3c21 [Example 32.1, 1-(1,3-Dimethyl-1H-pyrazol-4-yl)-8-(3-hydroxy-phenyl)-3-methyl-1,3-dihydro-imidazo[4,5-c]quinolin-2-one]
53 nM | 174 nM | 62 nM | 132 nM | CCOc1cc(-c2ccc3ncc4c(c3c2)n(-c2c(C)nn(C)c2C)c(=O)n4C)ccc1OC [Example 28.2, 8-(3-Ethoxy-4-methoxy-phenyl)-3-methyl-1-(1,3,5-trimethyl-1H-pyrazol-4-yl)-1,3-dihydro-imidazo[4,5-c]quinolin-2-one]
17 nM | 215 nM | 8 nM | 122 nM | CCOc1ccc(-c2ccc3ncc4c(c3c2)n(-c2cn(CC)nc2C)c(=O)n4C)cc1OCC [Example 27.1, 8-(3,4-Diethoxy-phenyl)-1-(1-ethyl-3-methyl-1H-pyrazol-4-yl)-3-methyl-1,3-dihydro-imidazo[4,5-c]quinolin-2-one]
42 nM | 194 nM | 13 nM | 31 nM | CCOc1cc(-c2ccc3ncc4c(c3c2)n(-c2cn(C)nc2C)c(=O)n4C)ccc1OC [Example 28.3, 1-(1,3-Dimethyl-1H-pyrazo1-4-yl)-8-(3-ethoxy-4-methoxy-phenyl)-3-methyl-1,3-dihydro-imidazo[4,5-c]quinolin-2-one]
